# Source: patent US9062066B2, “Anti-inflammatory compound having inhibitory activity against multiple tyrosine kinases and pharmaceutical composition containing same” (KOREA INSTITUTE OF SCIENCE AND TECHNOLOGY, priority 2010, dated 2015)
# Read-outs that look alike come from different tables or passages of the source.
# Assays:
# mouse skin fibroblast = assay: inhibition of migration of activated fibroblast (scratch wound); assay type: cell-based; details: 0.5 uM compound, 10 ng/ml TGF-β1, 24 hours, read-out: Inhibition (%) of migration of activated fibroblast
# Method: The straight line of regular width was made using a micro pipette tip for a scratch wound on the mono-layer culture, and then the culture was exchanged to DMEM medium and incubated with 10 ng/ml of TGF-β1 in cell culture incubator of 37° C. for 24 hours. The cultured cells were fixed using formalin and stained with crystal violet. Photo-pictures were taken at 100× magnification in five location selected randomly in the scratched wound site of each stained culture dish and then the number of the cells moved into the scratched wound area was counted and averaged.
# Hck tyrosine kinase = Hck tyrosine kinase (Homo sapiens (Human), UniProt P08631); assay: in vitro Hck tyrosine kinase inhibition; assay type: biochemical; details: 1 uM compound; read-out: % inhibition against Hck
# Hck tyrosine kinase, sequence (P08631 whole entry): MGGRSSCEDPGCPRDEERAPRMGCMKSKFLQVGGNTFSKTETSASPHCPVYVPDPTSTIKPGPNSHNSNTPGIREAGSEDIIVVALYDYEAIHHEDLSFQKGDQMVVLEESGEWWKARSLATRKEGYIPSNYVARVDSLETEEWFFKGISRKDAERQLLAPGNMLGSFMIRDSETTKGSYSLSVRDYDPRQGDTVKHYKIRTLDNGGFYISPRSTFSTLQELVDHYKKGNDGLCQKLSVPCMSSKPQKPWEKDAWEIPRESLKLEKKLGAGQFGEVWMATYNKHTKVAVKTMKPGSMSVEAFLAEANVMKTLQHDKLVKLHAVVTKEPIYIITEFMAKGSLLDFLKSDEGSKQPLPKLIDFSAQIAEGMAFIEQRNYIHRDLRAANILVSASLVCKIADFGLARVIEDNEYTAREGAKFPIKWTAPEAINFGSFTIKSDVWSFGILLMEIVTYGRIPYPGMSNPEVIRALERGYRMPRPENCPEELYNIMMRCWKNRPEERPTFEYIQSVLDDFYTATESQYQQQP
# c-Src tyrosine kinase = c-Src tyrosine kinase (Homo sapiens (Human), UniProt P12931); assay: in vitro c-Src tyrosine kinase inhibition (32P-ATP, poly(D4Y)n substrate); assay type: biochemical; details: 1 uM compound; read-out: % inhibition against c-Src
# c-Src tyrosine kinase, sequence (P12931 whole entry, looked up): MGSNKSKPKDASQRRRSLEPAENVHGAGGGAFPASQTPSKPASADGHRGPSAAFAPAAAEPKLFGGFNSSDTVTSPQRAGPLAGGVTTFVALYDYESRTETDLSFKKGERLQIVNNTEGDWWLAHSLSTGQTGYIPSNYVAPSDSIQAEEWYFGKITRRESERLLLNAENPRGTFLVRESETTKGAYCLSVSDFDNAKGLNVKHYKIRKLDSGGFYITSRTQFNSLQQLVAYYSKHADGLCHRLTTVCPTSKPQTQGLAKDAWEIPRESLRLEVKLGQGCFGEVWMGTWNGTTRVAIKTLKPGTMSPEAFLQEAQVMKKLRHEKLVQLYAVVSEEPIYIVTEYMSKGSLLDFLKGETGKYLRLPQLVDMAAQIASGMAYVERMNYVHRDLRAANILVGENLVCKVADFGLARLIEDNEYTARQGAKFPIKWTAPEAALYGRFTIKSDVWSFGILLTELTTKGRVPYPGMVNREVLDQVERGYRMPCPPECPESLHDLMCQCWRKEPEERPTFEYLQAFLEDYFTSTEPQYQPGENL
# [1] = system: NO synthesis in J744A.1 macrophage; assay: inhibition of nitric oxide (NO) synthesis in LPS-activated macrophages (Griess reagent); assay type: cell-based; details: read-out: Inhibition (%) of NO synthesis
# DDR2 tyrosine kinase = DDR2 tyrosine kinase (Homo sapiens (Human), UniProt Q16832); assay: in vitro DDR2 tyrosine kinase inhibition (GST-fused kinase domain); assay type: biochemical; details: 1 uM compound; read-out: % inhibition against DDR2
# DDR2 tyrosine kinase, sequence (Q16832 563-849): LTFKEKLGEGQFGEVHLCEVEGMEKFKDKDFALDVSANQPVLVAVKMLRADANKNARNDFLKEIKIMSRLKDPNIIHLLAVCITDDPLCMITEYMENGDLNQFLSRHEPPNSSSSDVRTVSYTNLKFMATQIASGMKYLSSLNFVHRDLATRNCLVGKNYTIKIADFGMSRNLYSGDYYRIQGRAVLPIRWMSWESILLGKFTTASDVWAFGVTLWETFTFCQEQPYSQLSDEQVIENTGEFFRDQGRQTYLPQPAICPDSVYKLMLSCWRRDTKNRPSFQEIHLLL
# DDR1 tyrosine kinase = DDR1 tyrosine kinase (Homo sapiens (Human), UniProt Q08345); assay: in vitro DDR1 tyrosine kinase inhibition (GST-fused kinase domain); assay type: biochemical; details: 1 uM compound; read-out: % inhibition against DDR1
# DDR1 tyrosine kinase, sequence (Q08345 610-905): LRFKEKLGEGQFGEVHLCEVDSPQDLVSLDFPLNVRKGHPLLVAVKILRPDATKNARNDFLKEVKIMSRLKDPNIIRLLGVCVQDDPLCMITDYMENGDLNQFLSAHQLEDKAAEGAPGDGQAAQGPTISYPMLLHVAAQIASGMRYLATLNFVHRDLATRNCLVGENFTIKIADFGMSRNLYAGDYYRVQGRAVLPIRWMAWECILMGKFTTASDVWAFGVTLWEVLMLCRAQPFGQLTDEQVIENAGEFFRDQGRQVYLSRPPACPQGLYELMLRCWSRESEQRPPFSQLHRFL
# [2] = system: TNF-α synthesis in J744A.1 macrophages; assay: inhibition of TNF-α synthesis in LPS-activated macrophages (ELISA); assay type: cell-based; details: Macrophage, read-out: Inhibition (%) of TNF-α synthesis
# Fgr tyrosine kinase = Fgr tyrosine kinase (Homo sapiens (Human), UniProt P09769); assay: in vitro Fgr tyrosine kinase inhibition; assay type: biochemical; details: 1 uM compound; read-out: % inhibition against Fgr
# Fgr tyrosine kinase, sequence (P09769 whole entry): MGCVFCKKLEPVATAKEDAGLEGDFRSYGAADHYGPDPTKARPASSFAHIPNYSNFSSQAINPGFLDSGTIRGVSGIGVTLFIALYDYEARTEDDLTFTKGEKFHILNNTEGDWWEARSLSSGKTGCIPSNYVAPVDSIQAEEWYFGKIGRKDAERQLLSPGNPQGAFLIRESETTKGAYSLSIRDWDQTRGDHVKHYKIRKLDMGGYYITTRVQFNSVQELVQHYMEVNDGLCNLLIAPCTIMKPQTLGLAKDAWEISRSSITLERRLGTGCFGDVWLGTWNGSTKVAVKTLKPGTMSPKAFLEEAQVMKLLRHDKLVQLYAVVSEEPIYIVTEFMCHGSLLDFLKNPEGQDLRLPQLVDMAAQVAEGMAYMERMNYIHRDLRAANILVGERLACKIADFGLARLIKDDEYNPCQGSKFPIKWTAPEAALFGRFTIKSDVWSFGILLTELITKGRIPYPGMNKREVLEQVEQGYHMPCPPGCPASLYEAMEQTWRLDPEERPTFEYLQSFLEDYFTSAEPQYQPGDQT
# [3] = system: oxazolone-induced skin inflammation of Balb/C mouse ears; assay: mouse skin inflammatory model induced by oxazolone (ear thickness); assay type: in vivo; details: 20 ul of 0.1% compound topical on ear, 36 hours after oxazolone
# Method: The compounds of the present invention were evaluated for their effective anti-inflammatory activity using a skin inflammatory animal model of 8 weeks old Balb/C mouse ears induced by oxazolone. […] After 4 days, the thickness of ear was measured using a caliper for the thickness value of ear before the induction of inflammation. […] After 36 hours, the thickness of ear was measured for the increased thickness induced by inflammation. […] The average value was obtained in each group (n=4).
# Lyn tyrosine kinase = Lyn tyrosine kinase (Homo sapiens (Human), UniProt P07948); assay: in vitro Lyn tyrosine kinase inhibition; assay type: biochemical; details: 1 uM compound; read-out: % inhibition against Lyn
# Lyn tyrosine kinase, sequence (P07948 whole entry): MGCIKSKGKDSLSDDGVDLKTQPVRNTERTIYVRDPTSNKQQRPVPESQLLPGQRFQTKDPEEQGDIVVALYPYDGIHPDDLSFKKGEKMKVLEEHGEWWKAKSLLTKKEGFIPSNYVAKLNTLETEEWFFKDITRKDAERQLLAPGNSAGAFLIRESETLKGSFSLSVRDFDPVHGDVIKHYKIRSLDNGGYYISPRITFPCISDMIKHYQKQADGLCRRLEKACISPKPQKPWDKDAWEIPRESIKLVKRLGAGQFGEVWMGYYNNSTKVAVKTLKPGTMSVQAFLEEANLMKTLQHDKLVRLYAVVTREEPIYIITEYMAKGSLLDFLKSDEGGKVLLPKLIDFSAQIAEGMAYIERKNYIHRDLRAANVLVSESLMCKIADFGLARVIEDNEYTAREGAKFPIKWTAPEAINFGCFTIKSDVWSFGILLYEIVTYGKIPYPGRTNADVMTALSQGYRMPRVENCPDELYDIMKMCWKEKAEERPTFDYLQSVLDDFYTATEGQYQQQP
# [4] = system: α-smooth muscle actin protein expression in skin fibroblast cells; assay: inhibition of α-smooth muscle actin expression in fibroblast activated by type I collagen and TGF-β1 (western blotting); assay type: cell-based, Balb/C mouse; details: Mus musculus, 0.5 uM compound, 10 ng/ml TGF-β1, 48 hours, type I collagen, read-out: Inhibition (%) of α-smooth muscle actin increase
# From the text: When fibroblast, […] alpha smooth muscle cells are converted to myofibroblast by activation, one of characteristic features is that α-smooth muscle actin protein expression is increased. Also myoblast cells with the increased α-smooth muscle actin expression have a character of an increased migration. These phenomena appear together with the activation of inflammatory cells and the activated myoblast-type cells are known to contribute directly to the pathology of inflammatory diseases. […] In this experiment, the expression level of alpha smooth muscle actin can be quantificated by measuring the density of α-smooth muscle actin protein band with densitometer after developing the X-ray film of chemiluminescence signal in western blotting experiment.
# [5] = 10 μM compound, 100 ng/ml LPS, 6 hours
Compound,inhibition at 1 µM (Hck tyrosine kinase),inhibition at 1 µM (c-Src tyrosine kinase),inhibition at 1 µM (DDR2 tyrosine kinase),inhibition at 1 µM (DDR1 tyrosine kinase),inhibition at 1 µM (Fgr tyrosine kinase),inhibition at 1 µM (Lyn tyrosine kinase),inhibition at 0.5 µM (mouse skin fibroblast),"inhibition at 10 µM ([1]; 10 μM compound, LPS, 24 hours)","inhibition at 10 µM [2, 5]",Inhibition (%) of increase of ear thickness [3],inhibition at 0.5 µM [4],inhibition at 10 µM ([1]; 24 h),inhibition at 10 µM ([2]; 6 h)
"C[C@@H]1CCC[C@H](C)N1Cc1ccc(-c2cc3ncnc(Nc4cccc(O)c4)c3s2)cc1.Cl [LCB 03-0059, 3-(6-(4-(((2R,6S)-2,6-dimethylpiperidin-1-yl)methyl)phenyl)thieno[3,2-d]pyrimidin-4-ylamino)phenol]",> 50%,> 50%,> 80%,> 80%,> 50%,> 50%,29%,88%,74%,59%,56%,,
"CCN(CC)Cc1cccc(-c2cc3ncnc(Nc4cccc(O)c4)c3s2)c1.Cl [LCB 03-0063, 3-(6-(3-((diethylamino)methyl)phenyl)thieno[3,2-d]pyrimidin-4-ylamino)phenol]",> 80%,> 80%,> 80%,> 80%,> 80%,> 80%,36%,89%,85%,51%,61%,,
"CCNCc1cccc(-c2cc3ncnc(Nc4cccc(O)c4)c3s2)c1.Cl [LCB 03-0065, 3-(6-(3-((ethylamino)methyl)phenyl)thieno[3,2-d]pyrimidin-4-ylamino)phenol]",> 80%,> 80%,> 70%,> 70%,> 80%,> 80%,35%,84%,79%,52%,58%,,
"CC(C)CNCc1cccc(-c2cc3ncnc(Nc4cccc(O)c4)c3s2)c1.Cl [LCB 03-0067, 3-(6-(3-((isobutylamino)methyl)phenyl)thieno[3,2-d]pyrimidin-4-ylamino)phenol]",> 80%,> 80%,> 80%,> 80%,> 80%,> 80%,33%,85%,83%,54%,49%,,
"Cl.OCCNCc1ccc(-c2cc3ncnc(Nc4cccc(O)c4)c3s2)cc1 [LCB 03-0070, 3-(6-(4-((2-hydroxyethylamino)methyl)phenyl)thieno[3,2-d]pyrimidin-4-ylamino)phenol]",> 80%,> 80%,> 80%,> 80%,> 80%,> 80%,30%,90%,77%,55%,42%,,
"Oc1cccc(Nc2ncnc3cc(-c4cccc(CCN5CCNCC5)c4)sc23)c1 [LCB 03-0079, 3-(6-(3-(2-(piperazin-1-yl)ethyl)phenyl)thieno[3,2-d]pyrimidin-4-ylamino)phenol]",> 80%,> 80%,> 80%,> 80%,> 80%,> 80%,41%,74%,67%,51%,61%,,
"Oc1cccc(Nc2ccnc3cc(-c4ccc(CN5CCCC5)cc4)sc23)c1 [LCB 03-0080, 3-(2-(4-(pyrrolidin-1-ylmethyl)phenyl)thieno[3,2-b]pyridin-7-ylamino)phenol]",> 60%,> 60%,> 80%,> 80%,> 60%,> 60%,41%,,,53%,62%,78%,59%

# More lines, main results first:
inhibition at 1 µM (Hck tyrosine kinase),inhibition at 1 µM (c-Src tyrosine kinase),inhibition at 1 µM (DDR2 tyrosine kinase),inhibition at 1 µM (DDR1 tyrosine kinase),inhibition at 1 µM (Fgr tyrosine kinase),inhibition at 1 µM (Lyn tyrosine kinase),Compound,inhibition at 0.5 µM (mouse skin fibroblast),"inhibition at 10 µM ([1]; 10 μM compound, LPS, 24 hours)","inhibition at 10 µM [2, 5]",Inhibition (%) of increase of ear thickness [3],inhibition at 0.5 µM [4],inhibition at 10 µM ([1]; 24 h),inhibition at 10 µM ([2]; 6 h)
> 80%,> 80%,> 80%,> 80%,> 80%,> 80%,"Cl.Oc1cccc(Nc2ncnc3cc(-c4cccc(CN5CCCCC5)c4)sc23)c1 [LCB 03-0060, 3-(6-(3-(piperidin-1-ylmethyl)phenyl)thieno[3,2-d]pyrimidin-4-ylamino)phenol]",42%,93%,78%,66%,65%,,
> 80%,> 80%,> 80%,> 80%,> 80%,> 80%,"CN1CCN(Cc2cccc(-c3cc4ncnc(Nc5cccc(O)c5)c4s3)c2)CC1.Cl [LCB 03-0061, 3-(6-(3-((4-methylpiperazin-1-yl)methyl)phenyl)thieno[3,2-d]pyrimidin-4-ylamino)phenol]",44%,92%,91%,55%,68%,,
> 80%,> 80%,> 80%,> 80%,> 80%,> 80%,"Cl.Oc1cccc(Nc2ncnc3cc(-c4cccc(CN5CCCC5)c4)sc23)c1 [LCB 03-0062, 3-(6-(3-(pyrrolidin-1-ylmethyl)phenyl)thieno[3,2-d]pyrimidin-4-ylamino)phenol]",41%,93%,82%,57%,64%,,
> 80%,> 80%,> 80%,> 80%,> 80%,> 80%,"Cl.Oc1cccc(Nc2ncnc3cc(-c4cccc(CN5CCNCC5)c4)sc23)c1 [LCB 03-0064, 3-(6-(3-(piperazin-1-ylmethyl)phenyl)thieno[3,2-d]pyrimidin-4-ylamino)phenol]",41%,79%,73%,63%,66%,,
> 80%,> 80%,> 80%,> 80%,> 80%,> 80%,"Cl.Oc1cccc(Nc2ncnc3cc(-c4cccc(CN5CCOCC5)c4)sc23)c1 [LCB 03-0066, 3-(6-(3-(morpholinomethyl)phenyl)thieno[3,2-d]pyrimidin-4-ylamino)phenol]",54%,87%,93%,67%,75%,,
> 80%,> 80%,> 80%,> 80%,> 80%,> 80%,"Cl.Oc1cccc(Nc2ncnc3cc(-c4cccc(CCN5CCCC5)c4)sc23)c1 [LCB 03-0076, 3-(6-(3-(2-(pyrrolidin-1-yl)ethyl)phenyl)thieno[3,2-d]pyrimidin-4-ylamino)phenol]",45%,91%,90%,54%,57%,,
